Experimental data from patent publication EP4120837B1, “INHIBITORS OF CYTOKININ OXIDASE DERIVED FROM 2-(3-PHENYLUREIDO)BENZAMIDE, USE THEREOF AND PREPARATIONS CONTAINING THESE DERIVATIVES” (Univerzita Palackého v Olomouci, priority 2020, dated 2021).
Several values for one entry are separate records, joined by “and”; a condition that tells them apart may be missing. Identical values can stand only once. Like-named read-outs stand apart in the source and are kept apart here.

What was measured:
[1] = test system: winter rapeseed; assay: Field trial, seed yield of winter rapeseed; type: in vivo; settings: 1 µM foliar application; for Yield (%): 300 L per hectare, control = 100 %; for weight of one thousand seeds: control 5.38 g
Description: In 2018, the effect of foliar application of substance 24 (concentration 1 µM in a volume of 300 L per hectare) on the yield of winter rapeseed was investigated in field conditions. The field trials were again performed according to Good Agricultural Practice. Substance 24 was applied to plants in two different growth phases - BBCH 30 and BBCH 33-35. […] The weight of one thousand seeds in the treated plants was 5.6 g (BBCH 30) and 5.8 g (BBCH 33-35). This phenomenon also contributed to the increase in total seed yield. Table 5. Application of substance 24 increases the seed yield of winter rapeseed in field conditions

[2] = test system: wheat; assay: Field trial, seed yield of wheat; type: in vivo; settings: for Yield (%): control = 100 %
Description: Example 19. The application of compound 24 increases the seed yield of wheat in field conditions In 2017, the effect of the application of substance 24 on wheat yield in field conditions was investigated. The substance was again applied either to wheat seeds before sowing (= seed dressing with substance 24 at a concentration of 50 µM) or to leaves (= spraying with substance 24 at a concentration of 5 µM) in two different growth phases - BBCH 25 and BBCH 51. All field experiments were performed according to Good Agricultural Practice. […] Table 6. Application of compound 24 increases seed yield of wheat in field conditions

[3] = test system: Arabidopsis thaliana; assay: Foliar application, life span and seed yield of Arabidopsis under drought stress; type: in vivo; settings: 0.01 µM foliar spray, reduced watering
Description: Young Arabidopsis thaliana plants grown in small pots in soil were sprayed with a 0.01 µM aqueous solution of substance 24 in phase of four true leaves (within 14-20 days after sowing). Control plants were sprayed with an aqueous solution of DMSO (c = 0.01% (v/v)) and silwet (c = 0.001% (v/v)). Control plants were further divided into watered plants and those with reduced watering (drought stressed). […] All plants were grown until the stage of their natural death. Control watered plants lived for an average of 85 days before dying spontaneously. Their seed yield in average was 141 (± 22) mg. Control plants with reduced watering lived only 61 days on average and the average yield was 95 (± 14) mg. Plants treated with substance 24 and with reduced watering lived for an average of 75 days and their average seed yield was 117 (± 16) mg. […] Table 3. Foliar application with compound 24 reduces Arabidopsis thaliana seed yield losses

[4] = biological target: T1, ZmCKX1 (Zea mays, UniProt Q9T0N8); assay: ZmCKX1 inhibition, PMS/MTT assay; type: biochemical, maize
T1 construct: made in house; host or cells: Yarrowia lipolytica
Description: The IC50 (concentration of a substance that causes 50% inhibition of the enzyme activity) was measured by PMS/MTT assay [phenazine methosulphate/3-(4,5-dimethylthiazol-2-yl)-2,5-diphenyltetrazolium bromide]. The assay was performed in 96-well microtiter plates. Each well contained a reaction mixture with a final concentration of: 0.1 M KH2PO4, pH 7.4, 1 mM MTT, 0.2 mM PMS, tested substance in a concentration range of 0.1 nM - 1 µM and 10 µM N^6-isopentenyladenine (iP) as a substrate. To this reaction mixture 100 µL of medium containing the active enzyme ZmCKX1 was added. The enzyme was produced by the yeast Yarrowia lipolytica and isolated according to the protocol (Kopečný D. et al., 2005, […] 87:1011-1022). The plates were incubated for 30 min at 37 °C and the enzymatic reaction was stopped by the addition of 25 µL of 35% acetic acid. Then, the absorbance at 578 nm was measured on a spectrophotometer, and the absorbance of the sample without the substrate was substracted as a reference value. The IC50 value was determined from the concentration-dependent curves in GraphPad Prism software. The values shown in Table 1 are the average of at least two measurements each performed in three repetitions. […] The substance 3,5DCl-Ph-U is 1-(3,5-dichlorophenyl)-3-phenylurea, which we have been prepared to compare its inhibitory activity with the compounds presented in the present invention. Addition of the amide group to the unsubstituted phenyl ring of this substance gives the compound 2AD-3,5DC, which has 42-fold better inhibitory activity with the ZmCKX1 enzyme than 3,5DCl-Ph-U. F-INCYDE ((2-fluoro-9H-purin-6-yl)-(3-methoxyphenyl)amine), CPPU (1-(2-chloropyridin-4-yl)-3-phenylurea), and DCPPU (1-(2,6-dichloropyridin-4-yl)-3-phenylurea) are substances known in the prior art.

[5] = test system: barley; assay: Field trial, seed yield of barley; type: in vivo; settings: for Yield (%): control = 100 %
Description: The effect of compound 24 on seed yield of barley and its phenotype was investigated in a field trials. All field experiments were performed according to Good agricultural practices, ie. six areas of 10 m^2 were used for one variant. Furthermore, the crop was not treated with any other growth regulator (substance 24 only) or fungicide. Compound 24 was applied to seeds at a concentration of 10 µM before sowing. In 2016 barley seeds treated by this way were grown in the field and the yield of these plants was compared with the untreated control (Table 4).
In 2017, compound 24 was applied to barley leaves at a concentration of 5 µM (in a volume of 200 L per hectare) in two different growth phases - BBCH 21-23 and BBCH 51. […] Table 4. Application of substance 24 increases the seed yield of barley in field conditions

[6] = test system: Arabidopsis thaliana; assay: Foliar application, seed yield of Arabidopsis under optimal conditions; type: in vivo
Description: In our experiment, young Arabidopsis thaliana plants were grown in small pots in soil and they were sprayed with a 0.01 µM compound 24 (aq solution) in phase of 4 true leaves (about 14-20 days after sowing). Control plants were sprayed with an aqueous solution of DMSO (c = 0.01% (v/v)) and silwet (c = 0.001% (v/v)). Both treated (n = 25) and control plants (n = 25) were further grown under optimal conditions until their natural death. Subsequently, seeds from all plants were harvested and the yield was evaluated (Table 2). […] This means an increase in total seed yield of 21 %.
This means an increase in total seed yield of 17 %. Table 2. Foliar application of 24 increases seed yield of Arabidopsis thaliana

[7] = 10 µM iP as substrate, pH 7.4, 30 min at 37 °C, average of at least two measurements, read-out: IC50 (µM) ZmCKX1
[8] = 10 µM seed application before sowing, 2016
[9] = read-out: IC50 (µM) ZmCKX1, 10 µM iP as substrate, pH 7.4, 30 min at 37 °C, average of at least two measurements

T1 sequence (Q9T0N8 19-534): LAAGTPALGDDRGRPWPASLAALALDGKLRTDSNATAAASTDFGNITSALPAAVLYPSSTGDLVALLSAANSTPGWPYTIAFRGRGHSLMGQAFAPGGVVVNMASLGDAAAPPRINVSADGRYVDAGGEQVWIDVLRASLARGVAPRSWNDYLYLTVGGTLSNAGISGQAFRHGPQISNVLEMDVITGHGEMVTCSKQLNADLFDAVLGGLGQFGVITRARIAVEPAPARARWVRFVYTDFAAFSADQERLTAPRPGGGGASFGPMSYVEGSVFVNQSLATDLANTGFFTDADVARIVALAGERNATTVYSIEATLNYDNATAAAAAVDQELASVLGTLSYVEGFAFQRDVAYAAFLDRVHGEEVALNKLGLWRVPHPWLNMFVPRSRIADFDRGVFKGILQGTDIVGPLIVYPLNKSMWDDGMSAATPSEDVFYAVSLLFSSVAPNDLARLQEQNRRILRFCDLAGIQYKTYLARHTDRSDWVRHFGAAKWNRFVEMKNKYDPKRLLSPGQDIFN

SMILES: COc1ccc(C(N)=O)c(NC(=O)Nc2cc(Cl)cc(Cl)c2)c1 [compound 24, 2-[3-(3,5-Dichlorophenyl)ureido]-4-methoxybenzamide]
- Yield (%) ([1]; BBCH 30, 2018): 106.2%
- Yield (%) ([1]; BBCH 33-35, 2018): 108.8%
- weight of one thousand seeds ([1]; BBCH 30): 5.6 g
- weight of one thousand seeds ([1]; BBCH 33-35): 5.8 g
- Yield (%) ([2]; 5 µM foliar application, BBCH 25, 2017): 105.9%
- Yield (%) ([2]; 5 µM foliar application, BBCH 51, 2017): 105.0%
- Yield (%) ([2]; 50 µM seed dressing before sowing, 2017): 104.0%
- tillers, more than the control plants ([2]; treated plants, mode of application not specified, 2017): about 7%
- Yield (mg), average seed yield [3]: 117 ± 16 mg
- life span (lived for an average of) [3]: 75 days
- Yield (mg), average seed yield ([3]; listed as substance 24): 117 (± 16) mg
- Yield (%) ([3]; watered control = 100 %): 83%
- IC50 [4, 7]: 0.001 µM
- Yield (%) ([5]; 5 µM foliar application, 200 L per hectare, BBCH 21-23, 2017): 106.3%
- Yield (%) ([5]; 5 µM foliar application, 200 L per hectare, BBCH 51, 2017): 106.8%
- number of tillers, more than the control plants [5, 8]: 14%
- Yield (%) [5, 8]: 105.3%
- Yield (mg), total seed yield per plant ([6]; 0.01 µM aq solution sprayed in phase of 4 true leaves, n = 25, experiment and its repeat): 148 (± 17) mg and 135 (± 13) mg and 148 ± 17 mg and 135 ± 13 mg
- seeds per silique ([6]; 0.01 µM foliar spray, average): 50 (± 5) and 52 (± 7)
- Yield (%) ([6]; 0.01 µM foliar spray, control = 100 %): 121% and 117%

SMILES: COc1ccc(C(N)=O)c(NC(=O)Nc2cccc(Br)c2)c1 [compound 23, 2-[3-(3-bromophenyl)ureido]-4-methoxybenzamide]
- IC50 [4]: 0.033 µM

SMILES: CCNC(=O)c1ccc(OC)cc1NC(=O)Nc1cc(Cl)cc(Cl)c1 [compound 37, 2-[3-(3,5-dichlorophenyl)ureido]-4-methoxy-N-ethylbenzamide]
- IC50 [4, 7]: 0.002 µM

SMILES: CCCNC(=O)c1ccccc1NC(=O)Nc1cccc(F)c1 [compound 39, 2-[3-(3-fluorophenyl)ureido]-N-propylbenzamide]
- IC50 [4, 7]: 0.17 µM

SMILES: CCNC(=O)c1ccccc1NC(=O)Nc1cc(Cl)cc(Cl)c1 [compound 34, 2-[3-(3,5-dichlorophenyl)ureido]-N-ethylbenzamide]
- IC50 [4, 7]: 0.038 µM

SMILES: NC(=O)c1ccc(F)cc1NC(=O)Nc1cc(Cl)cc(Cl)c1 [compound 13, 2-[3-(3,5-dichlorophenyl)ureido]-4-fluorobenzamide]
- IC50 [4, 7]: 0.018 µM

SMILES: COc1ccc(C(N)=O)c(NC(=O)Nc2cccc(F)c2)c1 [compound 21, 2-[3-(3-fluorophenyl)ureido]-4-methoxybenzamide]
- IC50 [4, 7]: 0.058 µM

SMILES: NC(=O)c1ccc(OC(F)(F)F)cc1NC(=O)Nc1cccc(Br)c1 [compound 27, 2-[3-(3-bromophenyl)ureido]-4-trifluoromethoxybenzamide]
- IC50 [4]: 0.007 µM

SMILES: NC(=O)c1ccc(Br)cc1NC(=O)Nc1cc(Cl)cc(Cl)c1 [compound 19, 4-Bromo-2-[3-(3,5-dichlorophenyl)ureido]benzamide]
- IC50 [4, 9]: 0.001 µM

SMILES: CNC(=O)c1ccc(OC)cc1NC(=O)Nc1cccc(Cl)c1 [compound 33, 2-[3-(3-chlorophenyl)ureido]-4-methoxy-N-methylbenzamide]
- IC50 [4, 7]: 0.006 µM

SMILES: NC(=O)c1ccccc1NC(=O)Nc1cccc(OC(F)(F)F)c1 [compound 4]
- IC50 [4, 7]: 0.21 µM

SMILES: Cc1cc(Cl)cc(NC(=O)Nc2ccccc2C(N)=O)c1 [compound 10, 2-[3-(3-chloro-5-methylphenyl)ureido]benzamide]
- IC50 [4, 7]: 0.07 µM

SMILES: O=C(Nc1ccccc1)Nc1cc(Cl)nc(Cl)c1 [DCPPU, 1-(2,6-dichloropyridin-4-yl)-3-phenylurea, reference compound]
- IC50 [4, 7]: 4.5 µM

SMILES: NC(=O)c1ccc(Br)cc1NC(=O)Nc1cccc(Cl)c1 [compound 18, 4-bromo-2-[3-(3-chlorophenyl)ureido]benzamide]
- IC50 [4, 9]: 0.011 µM

SMILES: COc1ccc(C(=O)NCCN)c(NC(=O)Nc2cc(Cl)cc(Cl)c2)c1 [compound 56, 2-[3-(3,5-dichlorophenyl)ureido]-4-methoxy-N-(2-amino-ethyl)benzamide]
- IC50 [4, 7]: 0.013 µM

SMILES: CCCNC(=O)c1ccc(Cl)cc1NC(=O)Nc1cc(F)cc(F)c1 [compound 42, 4-chloro-2-[3-(3,5-difluorophenyl)ureido]-N-propylbenzamide]
- IC50 [4, 9]: 0.022 µM

SMILES: NC(=O)c1ccc(Cl)cc1NC(=O)Nc1cccc(Cl)c1 [compound 15, 4-chloro-2-[3-(3-chlorophenyl)ureido]benzamide]
- IC50 [4, 7]: 0.035 µM

SMILES: NC(=O)c1ccccc1NC(=O)Nc1cc(Cl)cc(Br)c1 [compound 9, 2-[3-(3-bromo-5-chlorophenyl)ureido]benzamide]
- IC50 [4]: 0.04 µM

SMILES: COc1cc(Cl)cc(NC(=O)Nc2cc(Br)ccc2C(N)=O)c1 [compound 20, 4-bromo-2-[3-(3-chloro-5-methoxyphenyl)ureido]benzamide]
- IC50 [4]: 0.034 µM

SMILES: COc1ccc(C(=O)NCCCO)c(NC(=O)Nc2cc(Cl)cc(Cl)c2)c1 [compound 53, 2-[3-(3,5-dichlorophenyl)ureido]-4-methoxy-N-(3-hydroxy-propyl)benzamide]
- IC50 [4, 7]: 0.02 µM

SMILES: NC(=O)c1ccccc1NC(=O)Nc1cc(Cl)cc(Cl)c1 [compound 6, 2-[3-(3,5-Dichlorophenyl)ureido]benzamide]
- IC50 [4, 7]: 0.022 µM
- better inhibitory activity with the ZmCKX1 enzyme than 3,5DCl-Ph-U ([4]; ratio versus 3,5DCl-Ph-U): 42 fold

SMILES: CCCNC(=O)c1ccc(OC)cc1NC(=O)Nc1cc(Cl)cc(Cl)c1 [compound 43, 2-[3-(3,5-dichlorophenyl)ureido]-4-methoxy-N-propylbenzamide]
- IC50 [4, 7]: 0.004 µM

SMILES: CCCNC(=O)c1ccccc1NC(=O)Nc1cc(F)cc(F)c1 [compound 40, 2-[3-(3,5-difluorophenyl)ureido]-N-propylbenzamide]
- IC50 [4, 7]: 0.062 µM
